Here are results for one substance from article PMC5594493, “Antiproliferative factor (APF) binds specifically to sites within the cytoskeleton-associated protein 4 (CKAP4) extracellular domain” (BMC Biochemistry, 2017).

This assay has as its target T1, CKAP4_127–360 (Homo sapiens, UniProt Q07065).
T1 construct: amino acids 106–602, 127–360, 361–524, and 525–602 regions were generated by PCR and subcloned into the pET-15b bacterial expression vector; His-tag; made in house; host or cells: E. coli BL21(DE3)pLysS
T1 sequence (Q07065 127-360): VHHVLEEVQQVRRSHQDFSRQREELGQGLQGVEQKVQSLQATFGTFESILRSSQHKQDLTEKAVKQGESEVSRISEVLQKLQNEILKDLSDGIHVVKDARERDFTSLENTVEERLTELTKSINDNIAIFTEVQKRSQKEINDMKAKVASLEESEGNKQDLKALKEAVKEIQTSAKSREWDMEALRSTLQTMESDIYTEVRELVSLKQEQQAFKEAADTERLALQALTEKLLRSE
The experiment in a line: SPR detection of as-APF in spiked urine, CKAP4_127–360 biosensor. It is filed as binding. The note with it: immobilized CKAP4_127–360. How it is done: For experiments using spiked urine, CKAP4_127–360 was immobilized on the Fc2 channel of a CM5 chip by amine-coupling, as the ligand. The Fc1 channel was similarly treated but without CKAP4, to serve as reference. A control urine sample from a healthy donor was mixed 1:1 with as-APF stock (200 μM) solution. Various dilutions of this mixture in SPR running buffer were prepared to yield desired as-APF final concentrations, and then injected over the sensor chip surface. Corresponding dilutions of unspiked control urine were run under identical conditions to account for background interference from urinary constituents. To ensure identical running conditions, all dilutions were adjusted to 1X SPR running buffer from a 10X stock. Sensorgrams were corrected for background interference from urinary constituents by subtracting the RU traces resulting from unspiked urine injections from the RU traces resulting from the corresponding urine dilutions with spiked as-APF, and subsequently replotted after subtracting the RU trace from the reference (Fc1) channel.
In order to determine whether this SPR-based assay employing CKAP4 as a biosensor could be used to detect APF in urine, we used urine from healthy donors spiked with as-APF as a mimetic for IC patient urine. CKAP4_127–360 was employed as the biosensing ligand, since it bound as-APF with the highest affinity. […]

As for “Neu5Acα2 − 3Galβ1 − 3GalNAcα-O-TVPAAVVVA [APF]”, the “detection in normal urine” value is “in a dose-dependent manner”.
